Values of other authors in US12582632B2, “Inhibition of neurological injuries due to infections via administration of Butanetap and analogs thereof” (priority 2021, dated 2026).

Details: 3 phase 3 clinical studies, failed; cited from earlier work

## CN1CC[C@@]2(C)c3cc(OC(=O)Nc4ccccc4)ccc3N(C)[C@@H]12 [Phenserine, (−)-N-phenylcarbamoyl eseroline]
  side effects in clinical studies: high cholinomimetic side effects
